From PubChem BioAssay AID248 (DTP/NCI, 2004)
Toxic doses and inconclusive results are not listed. Cut-off read from the data, not from the text of the source: active = T/C of 150% or more; inactive = T/C below 125%.

Tested on: L1210 leukemia ip in BDF1 mice, survival T/C
Test: NCI In Vivo Anticancer Drug Screen. Data for tumor model L1210 Leukemia (intraperitoneal) in B6D2F1 (BDF1) mice
Details: endpoint: mean survival time, higher = longer survival
Method in brief: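 Survival endpoint. Drug-treated group vs vehicle group, expressed as T divided by C. Tumor passaged by transplantation.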

[1] = dose: 50.0 mg/kg/injection, schedule: Q01DX001 (ip), vehicle: Klucel (hydroxypropylcellulose) (HPC)
[2] = dose: 100.0 mg/kg/injection, schedule: Q01DX001 (ip), vehicle: Klucel (hydroxypropylcellulose) (HPC)
[3] = dose: 200.0 mg/kg/injection, schedule: Q01DX001 (ip), vehicle: Klucel (hydroxypropylcellulose) (HPC)
[4] = dose: 100.0 mg/kg/injection, schedule: Q01DX001 (ip), vehicle: saline
[5] = dose: 200.0 mg/kg/injection, schedule: Q01DX001 (ip), vehicle: saline
[6] = dose: 75.0 mg/kg/injection, schedule: Q01DX001 (ip), vehicle: saline
[7] = dose: 100.0 mg/kg/injection, schedule: Q01DX009 (ip), vehicle: Klucel (hydroxypropylcellulose) (HPC)
[8] = dose: 100.0 mg/kg/injection, schedule: Q04DX003 (ip), vehicle: Klucel (hydroxypropylcellulose) (HPC)
[9] = dose: 200.0 mg/kg/injection, schedule: Q01DX009 (ip), vehicle: Klucel (hydroxypropylcellulose) (HPC)
[10] = dose: 200.0 mg/kg/injection, schedule: Q04DX003 (ip), vehicle: Klucel (hydroxypropylcellulose) (HPC)
[11] = dose: 400.0 mg/kg/injection, schedule: Q01DX009 (ip), vehicle: Klucel (hydroxypropylcellulose) (HPC)
[12] = dose: 400.0 mg/kg/injection, schedule: Q04DX003 (ip), vehicle: Klucel (hydroxypropylcellulose) (HPC)
[13] = dose: 100.0 mg/kg/injection, schedule: Q04DX003 (ip), vehicle: saline
[14] = dose: 200.0 mg/kg/injection, schedule: Q04DX003 (ip), vehicle: saline

Measured: T/C

O=C(Nc1ccccc1O)/C(Cl)=C/Cl
inactive: dose: 100.0 mg/kg/injection, schedule: Q01DX009 (ip), vehicle: saline with Tween-80 109 % of control | dose: 100.0 mg/kg/injection, schedule: Q04DX003 (ip), vehicle: saline sonified 104 % of control | dose: 200.0 mg/kg/injection, schedule: Q01DX009 (ip), vehicle: saline with Tween-80 102 % of control | dose: 200.0 mg/kg/injection, schedule: Q04DX003 (ip), vehicle: saline sonified 106 % of control | dose: 400.0 mg/kg/injection, schedule: Q01DX009 (ip), vehicle: saline with Tween-80 88 % of control | dose: 400.0 mg/kg/injection, schedule: Q04DX003 (ip), vehicle: saline sonified 106 % of control

CN(C)c1ccc(C(=O)CCCN2CCC(O)(c3ccc(C(F)(F)F)cc3)CC2)cc1
inactive: [1] 97 % of control | [2] 96 % of control | [3] 105 % of control

O=C(O)c1ccc(F)cc1O
inactive: [4] 97 % of control | [5] 109 % of control

CCC1(/C=C/C(C)C)C(=O)NC(=O)NC1=O
inactive: [6] 105 % of control | dose: 150.0 mg/kg/injection, schedule: Q01DX001 (ip), vehicle: saline 93 % of control

COc1ccc(Cl)cc1NC(=O)Nc1cc(Cl)c(Cl)cc1C
inactive: [7] 102 % of control | [8] 95 % of control | [9] 100 % of control | [10] 94 % of control | [11] 97 % of control | [12] 94 % of control

Cc1cc2oc(/C=N/Nc3ccc([N+](=O)[O-])cc3[N+](=O)[O-])c(C)c2cc1C
inactive: [7] 94 % of control | [9] 94 % of control | [11] 89 % of control

O=S1(=O)C=C(Cl)C2C3C=CC(C3)C21 (configuration not stated)
inactive: dose: 0.62 mg/kg/injection, schedule: Q01DX009 (ip), vehicle: acetone 101 % of control | dose: 1.25 mg/kg/injection, schedule: Q01DX009 (ip), vehicle: acetone 104 % of control | dose: 2.5 mg/kg/injection, schedule: Q04DX003 (ip), vehicle: acetone 90 % of control | dose: 5.0 mg/kg/injection, schedule: Q04DX003 (ip), vehicle: acetone 92 % of control | dose: 10.0 mg/kg/injection, schedule: Q01DX001 (ip), vehicle: acetone 97 % of control

CC1(C)SC(C)(C)N(C=O)C1C(=O)O (configuration not stated)
inactive: [4] 94 % of control | [7] 93 % of control | [8] 105 % of control | [5] 94 % of control | [9] 94 % of control | [10] 95 % of control | dose: 400.0 mg/kg/injection, schedule: Q01DX001 (ip), vehicle: saline 110 % of control | [11] 96 % of control | [12] 97 % of control

CC1(C)Cc2cccc(Br)c2O1
inactive: dose: 100.0 mg/kg/injection, schedule: Q01DX001 (ip), vehicle: other 98 % of control | dose: 200.0 mg/kg/injection, schedule: Q01DX001 (ip), vehicle: other 103 % of control | dose: 400.0 mg/kg/injection, schedule: Q01DX001 (ip), vehicle: other 97 % of control

C[Si](C)(O[Si](C)(C)c1ccccc1)c1ccccc1
inactive: dose: 20.0 mg/kg/injection, schedule: Q01DX009 (ip), vehicle: saline 93 % of control | dose: 40.0 mg/kg/injection, schedule: Q01DX009 (ip), vehicle: saline 90 % of control | dose: 80.0 mg/kg/injection, schedule: Q01DX009 (ip), vehicle: saline 87 % of control | dose: 100.0 mg/kg/injection, schedule: Q01DX009 (ip), vehicle: saline 95 % of control | [13] 103 % of control | dose: 200.0 mg/kg/injection, schedule: Q01DX009 (ip), vehicle: saline 107 % of control | [14] 100 % of control | dose: 400.0 mg/kg/injection, schedule: Q04DX003 (ip), vehicle: saline 97 % of control

CCS(=O)(=O)c1ccc(C(=O)N=[N+]=[N-])cc1
inactive: dose: 100.0 mg/kg/injection, schedule: Q01DX001 (ip), vehicle: carboxymethylcellulose (CMC) 92 % of control | dose: 200.0 mg/kg/injection, schedule: Q01DX001 (ip), vehicle: carboxymethylcellulose (CMC) 97 % of control | dose: 400.0 mg/kg/injection, schedule: Q01DX001 (ip), vehicle: carboxymethylcellulose (CMC) 105 % of control

CN1CCC23CCCCC2C1Cc1ccc(O)cc13 (configuration not stated)
inactive: [6] 95 % of control

Cc1cc(C)c(N(CC(=O)O)S(=O)(=O)c2ccccc2)c(C)c1Cl
inactive: [1] 100 % of control | [2] 86 % of control | [3] 91 % of control

CCCOC(=O)Cc1cccc2ccccc12
inactive: dose: 222.0 mg/kg/injection, schedule: Q01DX Z (ip), vehicle: saline 90 % of control | dose: 333.0 mg/kg/injection, schedule: Q01DX Z (ip), vehicle: saline 96 % of control | dose: 500.0 mg/kg/injection, schedule: Q01DX Z (ip), vehicle: saline 96 % of control

O=C1CCC2(CCCc3c2ccc2ccccc32)O1 (configuration not stated)
inactive: dose: 50.0 mg/kg/injection, schedule: Q04DX003 (ip), vehicle: saline 97 % of control | [13] 97 % of control | [14] 90 % of control

COc1ccc(C(O)C2c3c(cc4c(c3OC)OCO4)CCN2C)c(CO)c1OC (configuration not stated)
inactive: dose: 75.0 mg/kg/injection, schedule: Q01DX001 (ip), vehicle: carboxymethylcellulose (CMC) 100 % of control | dose: 150.0 mg/kg/injection, schedule: Q01DX001 (ip), vehicle: carboxymethylcellulose (CMC) 105 % of control
